From EP2140864A2 (H. Lundbeck A/S, priority 2001, dated 2002)
Read-outs that look alike come from different tables or passages of the source.

Columns and labels:
[1] = molecular target: T1, human 5HT4 receptor (Homo sapiens, UniProt Q13639); test: Radioligand binding, 5-HT4 receptor
T1 construct: expressed in transfected cells
Experimental: Other 5-HT Receptors: Other serotonin receptor binding assays were performed according to published methods: rat 5HT2C receptor (Julius et al., 1988); and 5-HT6 (Monsma, et al., 1993). The binding assays using the 5-HT4 receptor were performed according to the procedures described in U.S. Patent No. 5,766,879, the disclosure of which is hereby incorporated by reference in its entirety into this application.
(§1) Binding data were analyzed using nonlinear regression and statistical techniques available in the GraphPAD Prism package (San Diego, CA). Enzymatic assay data were derived from a standard curve of reference compound data.

[2] = molecular target: T2, human α2A adrenoceptor (Homo sapiens, UniProt P08913); test: Radioligand binding, α2A adrenergic receptor
T2 construct: expressed in transfected cells
T2 sequence (P08913 1-465): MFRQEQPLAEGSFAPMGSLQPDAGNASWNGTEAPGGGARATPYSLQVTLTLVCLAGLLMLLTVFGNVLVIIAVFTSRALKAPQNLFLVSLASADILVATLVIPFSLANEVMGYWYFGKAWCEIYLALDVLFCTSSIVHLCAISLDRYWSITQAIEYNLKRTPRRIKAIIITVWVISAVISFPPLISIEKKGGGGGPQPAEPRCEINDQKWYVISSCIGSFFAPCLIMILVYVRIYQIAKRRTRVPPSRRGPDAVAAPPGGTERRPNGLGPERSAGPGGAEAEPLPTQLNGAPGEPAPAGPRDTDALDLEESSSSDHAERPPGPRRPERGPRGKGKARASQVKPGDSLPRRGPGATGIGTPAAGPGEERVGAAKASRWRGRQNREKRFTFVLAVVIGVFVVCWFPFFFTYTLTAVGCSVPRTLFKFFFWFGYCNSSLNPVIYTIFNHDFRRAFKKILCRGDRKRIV
From the text: (§2) Other receptors: Cell membranes expressing human dopamine D1, D2, D4 and rat D3 receptors were purchased through BioSignal, Inc. (Montreal, Canada). Binding assays using the histamine H1 receptor; dopamine receptors; and α1A, α1E, and α2 adrenergic receptors may be carried out according to the procedures described in U.S. Patent No. 5,780,485, the disclosure of which is hereby incorporated by reference in its entirety into this application. Binding assays using the dopamine D5 receptor may be carried out according to the procedures described in U.S. Patent No. 5,882,855, the disclosure of which is hereby incorporated by reference in its entirety into this application. Binding assays for the human α1D adrenergic receptor may be carried out according to the procedures described in U.S. Patent No. 6,156,518, the disclosure of which is hereby incorporated by reference in its entirety into this application.
as §1

[3] = molecular target: T3, rat D3 receptors (Rattus norvegicus, UniProt P19020); test: Radioligand binding, dopamine D3 receptor
T3 construct: purchased BioSignal, Inc. (Montreal, Canada)
T3 sequence (P19020 whole entry): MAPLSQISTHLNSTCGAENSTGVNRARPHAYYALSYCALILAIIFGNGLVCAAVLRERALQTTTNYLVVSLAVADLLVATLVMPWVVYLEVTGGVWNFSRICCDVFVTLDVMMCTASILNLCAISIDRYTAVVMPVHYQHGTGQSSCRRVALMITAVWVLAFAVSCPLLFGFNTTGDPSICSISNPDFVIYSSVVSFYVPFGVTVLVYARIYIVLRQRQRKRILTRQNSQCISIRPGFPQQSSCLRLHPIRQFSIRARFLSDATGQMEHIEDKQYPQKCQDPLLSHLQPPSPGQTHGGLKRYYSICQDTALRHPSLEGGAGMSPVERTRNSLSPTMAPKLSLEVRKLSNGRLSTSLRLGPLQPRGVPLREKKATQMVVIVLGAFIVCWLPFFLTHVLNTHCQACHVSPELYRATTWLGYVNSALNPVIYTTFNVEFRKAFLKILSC
From the text: as §2, §1

[4] = molecular target: T4, human α1D adrenergic receptor (Homo sapiens, UniProt P25100); test: Radioligand binding, α1D adrenergic receptor
T4 construct: expressed in transfected cells
T4 sequence (P25100 1-572): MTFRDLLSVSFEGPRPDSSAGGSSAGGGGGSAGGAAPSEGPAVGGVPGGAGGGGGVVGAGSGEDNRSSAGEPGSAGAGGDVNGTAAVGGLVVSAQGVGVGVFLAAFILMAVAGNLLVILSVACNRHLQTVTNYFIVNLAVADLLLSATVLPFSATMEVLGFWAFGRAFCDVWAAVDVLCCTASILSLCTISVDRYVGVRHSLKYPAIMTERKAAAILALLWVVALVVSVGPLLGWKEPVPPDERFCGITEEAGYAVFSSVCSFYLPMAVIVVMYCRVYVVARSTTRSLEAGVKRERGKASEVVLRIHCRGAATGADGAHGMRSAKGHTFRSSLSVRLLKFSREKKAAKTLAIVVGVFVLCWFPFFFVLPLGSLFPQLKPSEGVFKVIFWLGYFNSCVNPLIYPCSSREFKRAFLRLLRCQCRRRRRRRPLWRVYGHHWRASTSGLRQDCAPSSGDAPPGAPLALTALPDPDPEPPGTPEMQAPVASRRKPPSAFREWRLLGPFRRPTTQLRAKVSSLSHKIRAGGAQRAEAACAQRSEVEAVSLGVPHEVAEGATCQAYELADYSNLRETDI
From the text: as §2, §1

[5] = Table 8; Ki h5HT4 divided by Ki hGAL3
[6] = Table 10; Ki hα2A divided by Ki hGAL3
[7] = Table 10; Ki rD3 divided by Ki hGAL3
[8] = Table 10; Ki hα1D divided by Ki hGAL3

T1 sequence (Q13639 whole entry): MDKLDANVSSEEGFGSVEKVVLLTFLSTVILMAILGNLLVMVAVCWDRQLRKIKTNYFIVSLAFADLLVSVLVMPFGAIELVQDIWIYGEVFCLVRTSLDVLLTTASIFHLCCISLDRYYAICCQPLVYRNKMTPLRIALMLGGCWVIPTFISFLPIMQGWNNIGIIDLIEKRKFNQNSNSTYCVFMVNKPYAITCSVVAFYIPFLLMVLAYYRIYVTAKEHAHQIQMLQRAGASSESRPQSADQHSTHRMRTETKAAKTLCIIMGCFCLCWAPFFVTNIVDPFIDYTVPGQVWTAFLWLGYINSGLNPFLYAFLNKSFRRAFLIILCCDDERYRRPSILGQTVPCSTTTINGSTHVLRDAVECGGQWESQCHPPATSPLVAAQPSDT

SMILES | Ki ([1]; Table 7; read-out: h5HT4 Ki) [µM] | selectivity ratio h5HT4 [1, 5] | Ki ([2]; Table 9; read-out: hα2A Ki) [µM] | selectivity ratio hα2A [2, 6] | Ki ([3]; Table 9; read-out: rD3 Ki) [µM] | selectivity ratio rD3 [3, 7] | Ki ([4]; Table 9; read-out: hα1D Ki) [µM] | selectivity ratio hα1D [4, 8] | Ki ([1]; read-out: h5HT4 Ki; Table 7) [µM] | Ki ([2]; read-out: hα2A Ki; Table 9) [µM] | Ki ([3]; read-out: rD3 Ki; Table 9) [µM] | Ki ([4]; read-out: hα1D Ki; Table 9) [µM]
CN(CCc1c[nH]c2ccccc12)c1nc(Nc2ccc(F)c(F)c2)cc(N2CCCCC2)n1 [Example 15] | 2.3 | >30 | 14.4 | >100 | 8.81 | >100 | 0.48 | 7 |  |  |  | 
O=C1C(=Nc2ccc(Cl)cc2)c2ccccc2N1c1ccccc1 [Example 97, 3-[(4-CHLOROPHENYL)IMINO]-1-PHENYL-1,3-DIHYDRO-2H-INDOL-2-ONE] | 2.55 | >30 | 13.6 | >100 | 9.72 | >100 | 6.45 | >100 |  |  |  | 
O=C1C(=Nc2ccc(Br)cc2)c2ccccc2N1c1ccccc1 [Example 98, 3-[(4-BROMOPHENYL)IMINO]-1-PHENYL-1,3-DIHYDRO-2H-INDOL-2-ONE] | 1.21 | >30 | 23.2 | >100 | 0.592 | 16 | 1.89 | >30 |  |  |  | 
Cc1ccc(Nc2cc(N3CCCCC3)nc(N(C)CCc3c[nH]c4ccccc34)n2)cc1 [Example 11] | 1.31 | 14 | 1.82 | 20 | 2.14 | 24 | 0.264 | 3 |  |  |  | 
Cc1ccc(Nc2cc(N3CCCCC3)nc(N3CCN(c4ncccc4C(F)(F)F)CC3)n2)cc1 [Example 34] | 20.8 | >100 | 3.68 | >100 | 9.92 | >100 | 1.24 | >30 |  |  |  | 
O=C1C(=Nc2ccc(C(F)(F)F)cc2)c2ccccc2N1c1ccccc1 [Example 95, 1-PHENYL-3-[[4-(TRIFLUOROMETHYL)PHENYL]IMINO]-1,3-DIHYDRO-2H-INDOL-2-ONE] | 3.03 | >100 | 30.1 | >100 | 0.466 | 16 | 3.47 | >100 |  |  |  | 
COc1cccc(Nc2cc(N3CCCCC3)nc(N(C)CCc3c[nH]c4ccccc34)n2)c1 [Example 17] | 2.61 | 30 | 3.52 | >30 | 2.48 | 28 | 0.221 | 3 |  |  |  | 
CN(C)c1cc(Nc2ccc(Cl)c(Cl)c2)nc(Nc2ccccc2)n1 [Example 60] | 1.18 | 14 | 10.8 | >100 | 15.3 | >100 | 4.23 | >30 |  |  |  | 
O=C1C(=Nc2cccc(C(F)(F)F)c2)c2ccccc2N1c1ccccc1 [Example 92, 1-PHENYL-3- [[3-(TRIFLUOROMETHYL)PHENYL]IMINO]-1,3-DIHYDRO-2H-INDOL-2-ONE] |  | 2 |  | >100 |  | >100 |  | >100 |  |  |  | 
O=C1C(=Nc2cccc(Cl)c2)c2ccccc2N1c1ccccc1 [Example 94, 3-[(3-CHLOROPHENYL)IMINO]-1-PHENYL-1,3-DIHYDRO-2H-INDOL-2-ONE] | 4.12 | >30 | 12.7 | >100 | 0.423 | 9 | 4.03 | >30 |  |  |  | 
Cc1ccc(Nc2cc(N3CCCCC3)nc(N(C)CCc3ccccc3)n2)cc1 [Example 22] | 2.46 | >30 | 0.906 | >30 | 5.66 | >100 | 0.368 | 13 |  |  |  | 
COC[C@@H]1[C@@H](c2ccccc2)OCCN1c1nc(Nc2ccc(C)cc2)cc(N2CCCCC2)n1 [Example 49] |  | >30 |  | 22 |  | >30 |  | 3 | 13.2 | 4.73 | 14 | 0.678
Cc1ccc(Nc2cc(N(C)C)nc(N(C)CCc3c[nH]c4ccccc34)n2)cc1 [Example 77] | 1.32 | 17 | 0.315 | 4 | 2.72 | >30 | 0.217 | 3 |  |  |  | 
